Assay results published in article PMC9851200, “Multiparameter phenotypic screening for endogenous TFEB and TFE3 translocation identifies novel chemical series modulating lysosome function” (Autophagy, 2022).

Tests used:
Type in all cases: binding
[1] = target: T1, kinases (KINOMEscan panel) (Homo sapiens, UniProt O15197); conditions: kinase EPHB6; NEW KINOMEscan
T1 sequence (O15197 32-1021): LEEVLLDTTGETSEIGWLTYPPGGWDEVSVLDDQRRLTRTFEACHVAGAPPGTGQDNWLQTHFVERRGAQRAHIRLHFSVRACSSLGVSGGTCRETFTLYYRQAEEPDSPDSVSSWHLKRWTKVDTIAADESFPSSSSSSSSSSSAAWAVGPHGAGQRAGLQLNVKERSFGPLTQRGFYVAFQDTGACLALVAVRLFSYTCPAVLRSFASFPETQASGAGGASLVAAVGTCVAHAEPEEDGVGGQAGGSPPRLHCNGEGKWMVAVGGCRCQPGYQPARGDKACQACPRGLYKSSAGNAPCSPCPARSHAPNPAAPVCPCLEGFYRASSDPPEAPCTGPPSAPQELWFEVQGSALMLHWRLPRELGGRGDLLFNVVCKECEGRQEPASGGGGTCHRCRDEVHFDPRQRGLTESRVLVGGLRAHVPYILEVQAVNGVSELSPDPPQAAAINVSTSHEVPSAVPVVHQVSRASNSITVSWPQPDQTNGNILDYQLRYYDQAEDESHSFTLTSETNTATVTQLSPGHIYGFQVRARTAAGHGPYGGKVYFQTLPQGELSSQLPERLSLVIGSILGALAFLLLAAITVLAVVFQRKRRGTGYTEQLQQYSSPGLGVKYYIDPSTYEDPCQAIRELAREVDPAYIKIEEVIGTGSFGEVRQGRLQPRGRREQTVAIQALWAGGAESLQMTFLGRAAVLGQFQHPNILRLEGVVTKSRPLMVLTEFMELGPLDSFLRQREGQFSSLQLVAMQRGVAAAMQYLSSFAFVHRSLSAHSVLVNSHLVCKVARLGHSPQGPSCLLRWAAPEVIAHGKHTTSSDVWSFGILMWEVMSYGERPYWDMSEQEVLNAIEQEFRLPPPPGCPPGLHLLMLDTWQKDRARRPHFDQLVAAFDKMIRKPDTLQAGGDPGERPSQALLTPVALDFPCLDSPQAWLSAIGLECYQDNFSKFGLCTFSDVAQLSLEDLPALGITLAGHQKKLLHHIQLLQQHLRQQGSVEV

[2] = target: kinases (KINOMEscan panel) (Homo sapiens, UniProt Q9UM73); conditions: kinase ALK; NEW KINOMEscan
[3] = target: kinases (KINOMEscan panel) (Homo sapiens, UniProt P00519, T315I); conditions: NEW KINOMEscan; for KINOMEscan ABL1(T315I)-nonphosphorylated: kinase ABL1(T315I)-nonphosphorylated; for KINOMEscan ABL1(T315I)-phosphorylated: kinase ABL1(T315I)-phosphorylated
[4] = target: T2, kinases (KINOMEscan panel) (Homo sapiens, UniProt Q96PN8); conditions: kinase TSSK3; NEW KINOMEscan
T2 sequence (Q96PN8 1-268): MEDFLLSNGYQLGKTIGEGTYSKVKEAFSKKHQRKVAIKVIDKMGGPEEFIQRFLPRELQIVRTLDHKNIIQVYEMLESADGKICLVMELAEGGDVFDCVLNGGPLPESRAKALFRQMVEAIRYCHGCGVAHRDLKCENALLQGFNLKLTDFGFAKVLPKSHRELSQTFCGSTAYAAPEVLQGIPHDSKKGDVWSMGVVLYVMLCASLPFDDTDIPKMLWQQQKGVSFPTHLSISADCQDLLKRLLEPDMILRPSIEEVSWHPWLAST

[5] = target: kinases (KINOMEscan panel) (Homo sapiens, UniProt P00533, G719C); conditions: kinase EGFR(G719C); NEW KINOMEscan
[6] = target: kinases (KINOMEscan panel) (Homo sapiens, UniProt P08581, M1250T); conditions: kinase MET(M1250T); NEW KINOMEscan
[7] = target: T3, kinases (KINOMEscan panel) (Homo sapiens, UniProt Q9BXA7); conditions: kinase TSSK1B; NEW KINOMEscan
T3 sequence (Q9BXA7 1-367): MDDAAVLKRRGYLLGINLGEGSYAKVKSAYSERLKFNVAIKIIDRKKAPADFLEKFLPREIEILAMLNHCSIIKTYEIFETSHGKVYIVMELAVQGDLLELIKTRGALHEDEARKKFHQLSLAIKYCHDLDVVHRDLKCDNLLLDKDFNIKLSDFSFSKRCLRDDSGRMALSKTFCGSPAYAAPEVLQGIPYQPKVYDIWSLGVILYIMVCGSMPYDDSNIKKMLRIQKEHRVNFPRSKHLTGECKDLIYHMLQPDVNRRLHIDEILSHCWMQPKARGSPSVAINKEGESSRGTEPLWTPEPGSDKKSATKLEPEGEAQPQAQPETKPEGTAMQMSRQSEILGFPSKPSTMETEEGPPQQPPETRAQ

Chain of kinases (KINOMEscan panel) (Homo sapiens, UniProt P08581, M1250T) (P08581 25-1390 M1250T): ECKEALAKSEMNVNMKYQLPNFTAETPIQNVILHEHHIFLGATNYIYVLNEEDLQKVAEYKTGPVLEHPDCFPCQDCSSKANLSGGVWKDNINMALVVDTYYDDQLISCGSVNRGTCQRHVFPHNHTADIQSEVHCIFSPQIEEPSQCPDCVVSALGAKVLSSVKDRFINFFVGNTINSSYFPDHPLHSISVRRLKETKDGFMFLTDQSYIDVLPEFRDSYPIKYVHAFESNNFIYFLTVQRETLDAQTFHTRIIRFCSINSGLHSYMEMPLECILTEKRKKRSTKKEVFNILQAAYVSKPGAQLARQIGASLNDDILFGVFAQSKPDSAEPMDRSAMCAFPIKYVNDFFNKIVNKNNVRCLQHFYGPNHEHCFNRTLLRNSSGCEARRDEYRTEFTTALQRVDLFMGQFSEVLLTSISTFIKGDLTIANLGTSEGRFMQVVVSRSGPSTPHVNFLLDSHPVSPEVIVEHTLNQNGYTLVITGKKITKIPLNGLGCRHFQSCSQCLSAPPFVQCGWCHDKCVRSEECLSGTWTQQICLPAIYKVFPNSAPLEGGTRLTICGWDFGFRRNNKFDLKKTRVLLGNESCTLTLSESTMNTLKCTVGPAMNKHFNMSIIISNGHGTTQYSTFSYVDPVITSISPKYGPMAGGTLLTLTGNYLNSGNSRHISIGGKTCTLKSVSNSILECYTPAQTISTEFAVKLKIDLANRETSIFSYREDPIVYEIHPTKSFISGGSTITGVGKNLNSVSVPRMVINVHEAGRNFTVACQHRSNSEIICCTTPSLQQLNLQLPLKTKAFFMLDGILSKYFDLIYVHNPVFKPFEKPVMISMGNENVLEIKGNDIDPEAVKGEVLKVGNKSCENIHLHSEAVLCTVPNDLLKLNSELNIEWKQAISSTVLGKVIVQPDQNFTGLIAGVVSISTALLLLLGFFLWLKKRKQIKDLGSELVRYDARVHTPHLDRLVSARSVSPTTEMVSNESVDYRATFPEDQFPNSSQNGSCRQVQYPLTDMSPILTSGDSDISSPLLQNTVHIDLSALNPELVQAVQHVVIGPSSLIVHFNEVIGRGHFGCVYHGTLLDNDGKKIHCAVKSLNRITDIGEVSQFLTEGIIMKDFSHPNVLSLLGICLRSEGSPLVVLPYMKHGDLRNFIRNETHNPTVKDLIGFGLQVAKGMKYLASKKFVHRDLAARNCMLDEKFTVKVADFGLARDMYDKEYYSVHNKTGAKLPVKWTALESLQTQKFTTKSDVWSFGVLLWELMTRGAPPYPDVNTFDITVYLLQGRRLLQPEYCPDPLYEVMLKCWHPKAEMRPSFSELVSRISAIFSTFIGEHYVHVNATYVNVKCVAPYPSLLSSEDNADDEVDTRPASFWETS
Chain of kinases (KINOMEscan panel) (Homo sapiens, UniProt P00533, G719C) (P00533 25-1210 G719C): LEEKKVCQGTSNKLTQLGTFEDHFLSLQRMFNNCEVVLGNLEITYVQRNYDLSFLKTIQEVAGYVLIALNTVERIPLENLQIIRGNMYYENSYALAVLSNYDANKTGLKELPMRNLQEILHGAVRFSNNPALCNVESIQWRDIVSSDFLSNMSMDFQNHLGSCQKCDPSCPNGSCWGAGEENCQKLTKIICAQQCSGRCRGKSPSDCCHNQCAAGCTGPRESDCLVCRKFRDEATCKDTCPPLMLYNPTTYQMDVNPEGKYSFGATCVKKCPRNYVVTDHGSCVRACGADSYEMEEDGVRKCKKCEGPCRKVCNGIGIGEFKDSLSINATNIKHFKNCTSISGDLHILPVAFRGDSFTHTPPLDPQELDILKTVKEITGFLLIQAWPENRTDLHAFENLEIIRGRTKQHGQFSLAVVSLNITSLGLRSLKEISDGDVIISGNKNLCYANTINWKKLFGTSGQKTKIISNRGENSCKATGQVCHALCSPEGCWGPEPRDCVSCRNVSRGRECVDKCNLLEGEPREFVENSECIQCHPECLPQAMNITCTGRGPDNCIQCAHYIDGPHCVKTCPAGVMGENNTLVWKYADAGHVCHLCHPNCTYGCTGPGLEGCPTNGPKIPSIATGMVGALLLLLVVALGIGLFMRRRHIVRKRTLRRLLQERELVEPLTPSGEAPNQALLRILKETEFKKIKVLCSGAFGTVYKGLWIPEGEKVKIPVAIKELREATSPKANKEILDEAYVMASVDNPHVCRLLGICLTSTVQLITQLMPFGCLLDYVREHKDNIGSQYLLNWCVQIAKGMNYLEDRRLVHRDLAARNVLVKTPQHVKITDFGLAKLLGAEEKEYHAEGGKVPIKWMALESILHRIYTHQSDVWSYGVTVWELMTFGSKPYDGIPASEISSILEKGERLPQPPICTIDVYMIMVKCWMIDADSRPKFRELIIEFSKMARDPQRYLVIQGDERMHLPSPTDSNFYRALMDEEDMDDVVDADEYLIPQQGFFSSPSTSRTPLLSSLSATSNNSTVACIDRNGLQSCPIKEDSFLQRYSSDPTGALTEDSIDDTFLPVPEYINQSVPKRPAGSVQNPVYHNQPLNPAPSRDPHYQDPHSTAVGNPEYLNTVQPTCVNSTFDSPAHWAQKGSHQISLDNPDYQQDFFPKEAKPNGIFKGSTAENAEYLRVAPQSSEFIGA
Chain of kinases (KINOMEscan panel) (Homo sapiens, UniProt Q9UM73) (Q9UM73 19-1620): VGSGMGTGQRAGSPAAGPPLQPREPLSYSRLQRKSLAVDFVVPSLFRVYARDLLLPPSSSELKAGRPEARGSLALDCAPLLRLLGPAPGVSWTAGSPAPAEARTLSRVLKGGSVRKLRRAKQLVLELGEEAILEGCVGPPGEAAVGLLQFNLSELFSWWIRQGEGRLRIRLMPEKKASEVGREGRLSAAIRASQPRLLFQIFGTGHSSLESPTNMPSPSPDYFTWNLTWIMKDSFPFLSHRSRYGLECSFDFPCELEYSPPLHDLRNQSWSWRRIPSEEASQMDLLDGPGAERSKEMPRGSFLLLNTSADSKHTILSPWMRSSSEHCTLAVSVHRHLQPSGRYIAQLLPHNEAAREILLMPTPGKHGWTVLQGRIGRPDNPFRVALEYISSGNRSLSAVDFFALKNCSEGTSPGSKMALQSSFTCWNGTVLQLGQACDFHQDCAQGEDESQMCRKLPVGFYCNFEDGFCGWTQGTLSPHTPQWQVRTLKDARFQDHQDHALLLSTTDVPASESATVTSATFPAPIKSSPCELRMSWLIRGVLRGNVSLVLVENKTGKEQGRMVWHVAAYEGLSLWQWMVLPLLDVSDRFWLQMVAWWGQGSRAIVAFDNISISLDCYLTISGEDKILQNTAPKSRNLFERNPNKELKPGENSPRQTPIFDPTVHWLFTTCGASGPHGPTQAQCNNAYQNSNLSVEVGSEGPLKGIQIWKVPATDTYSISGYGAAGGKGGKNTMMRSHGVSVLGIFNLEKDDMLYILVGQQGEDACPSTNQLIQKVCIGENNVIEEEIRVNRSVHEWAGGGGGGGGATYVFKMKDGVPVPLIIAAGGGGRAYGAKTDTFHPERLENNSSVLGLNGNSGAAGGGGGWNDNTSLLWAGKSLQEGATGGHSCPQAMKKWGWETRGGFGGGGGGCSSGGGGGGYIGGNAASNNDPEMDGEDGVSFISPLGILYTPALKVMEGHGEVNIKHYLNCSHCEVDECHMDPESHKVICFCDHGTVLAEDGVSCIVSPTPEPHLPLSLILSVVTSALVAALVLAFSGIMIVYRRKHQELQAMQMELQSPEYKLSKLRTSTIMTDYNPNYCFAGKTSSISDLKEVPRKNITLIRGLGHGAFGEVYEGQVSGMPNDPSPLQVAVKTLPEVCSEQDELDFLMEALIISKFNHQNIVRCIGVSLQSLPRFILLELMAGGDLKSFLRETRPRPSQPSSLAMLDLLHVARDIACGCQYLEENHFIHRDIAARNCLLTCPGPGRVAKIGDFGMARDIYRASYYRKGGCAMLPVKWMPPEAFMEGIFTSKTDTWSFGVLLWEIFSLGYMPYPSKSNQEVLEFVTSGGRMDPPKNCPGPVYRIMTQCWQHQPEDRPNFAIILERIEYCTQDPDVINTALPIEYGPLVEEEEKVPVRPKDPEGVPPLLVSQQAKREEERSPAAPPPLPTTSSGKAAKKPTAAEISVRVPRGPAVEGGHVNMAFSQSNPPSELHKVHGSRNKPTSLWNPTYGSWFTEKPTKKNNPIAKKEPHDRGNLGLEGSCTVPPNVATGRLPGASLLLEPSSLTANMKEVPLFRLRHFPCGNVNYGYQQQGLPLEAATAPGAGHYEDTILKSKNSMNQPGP

SMILES | KINOMEscan EPHB6 [1] | KINOMEscan ALK [2] | KINOMEscan ABL1(T315I)-nonphosphorylated [3] | KINOMEscan ABL1(T315I)-phosphorylated [3] | KINOMEscan TSSK3 [4] | KINOMEscan EGFR(G719C) [5] | KINOMEscan MET(M1250T) [6] | KINOMEscan TSSK1B [7]
Cc1cccc(-c2nc(N(C)c3ccc4ncsc4c3)c3ccccc3n2)n1 [NK-161] | 0 | 9 | 0 | 3 | 6 | 0 | 3 | 11
Cc1cccc(-c2nc(Nc3ccc4nn(C)cc4c3)c3ccccc3n2)n1 [NK167] | 0 | 22 | 0 | 4 | 0 | 0 | 0 | 15
